In assay [1] the test system is pentosidine in the peritoneal tissue. The assay can be described thus: Peritoneum protective effect: pentosidine in peritoneal tissue of uremic rat models (Experimental Example 4). The class given is in vivo, rats. The following applies: oral 30 mg/rat/day, 7 days. Here is the method:
The protective effect of oral administration of a pyridoxamine salt on the deterioration of the peritoneum caused by peritoneal dialysis was evaluated. More specifically, uremic rat models were subjected to intraperitoneal administration of a peritoneal dialysis fluid together with oral administration of a pyridoxamine salt, and the concentration of pentosidine in the peritoneal tissue, which was an indicator of tissue degeneration caused by enhanced carbonyl stress, was measured. Pentosidine is an advanced glycation/lipoxidation end product (AGE). Kidney subtotal excision rats were produced in the same manner as in Experimental Example 2. […] The sample for pentosidine measurement prepared in the above manner was subjected to HPLC under the following conditions, and pentosidine contained in the peritoneum was quantitatively analyzed. The quantitative analysis was performed using a standard calibration curve previously prepared by measurement under the following HPLC conditions using standard solutions of synthetic pentosidine of known concentrations. […] Stationary phase: C18 column (Puresil, 4.6×250 mm, 5 μm; Nihon Waters K.K.) Flow rate: 0.8 mL/min Detection: Fluorescence detection (excitation wavelength: 335 nm/absorption wavelength: 385 nm) (fluorescence detector: Shimadzu Corporation) Sample volume: 20 μL

The subject of assay [2] is dicarbonyl compounds (3-deoxyglucosone) in the intraperitoneal fluid. The assay can be described thus: 3-deoxyglucosone in intraperitoneal fluid of uremic rat models, acid peritoneal dialysis fluid (Experimental Example 2). The class given is in vivo, Sprague-Dawley male rats. The settings on record: oral 30 mg/rat/day, 7 days. The source says:
The uremic rat models were produced using 7-week-old (body weight: 300 g or less) Sprague-Dawley male rats (CLEA Japan, Inc.) by the method described in NPL 27 and NPL 28. More specifically, the above rats were first subjected to 1/3 nephrectomy under anesthesia, and then to 1/2 nephrectomy after a week, thereby producing 5/6 nephrectomy rats (rats with kidney subtotal excision). These rats were allowed to freely take a standard diet for experimental rats (containing 1.06% calcium, 0.9% phosphate, and 21% protein; CE2: CLEA Japan, Inc.) and tap water until the eve of slaughter. […]
When the quantitative analysis of pyridoxamine and dicarbonyl compounds (3-deoxyglucosone) in the samples was performed by liquid chromatography (HPLC), the above frozen test samples (serum and intraperitoneal fluid) were used after natural thawing at room temperature. […]
The quantitative analysis of dicarbonyl compounds (3-deoxyglucosone) was performed by reversed-phase high-performance liquid chromatography (HPLC) under the following conditions. The quantitative analysis was performed using a standard calibration curve previously prepared by measurement under the following HPLC conditions using standard solutions of 3-deoxyglucosone of known concentrations. […]
Detection: UV detection of absorbance at a wavelength of 315 nm (UV detector: Shimadzu Corporation)

With `Cc1ncc(CO)c(CN)c1O.Cl.Cl` [pyridoxamine dihydrochloride, Pyridoxamine dihydrochloride], the “pentosidine concentration in the peritoneum tissue compared with control group” value in assay [1] (acid peritoneal dialysis fluid) was “significantly lower”. The “Pentosidine concentration in peritoneal tissue” value in assay [1] (per mg of peritoneum (wet mass), acid peritoneal dialysis fluid 20 ml i.p., control group 0.065) is 0.022 pmol/mg. Also, the “3-deoxyglucosone concentration in the peritoneal cavity relative to control group” value in assay [2] (acid peritoneal dialysis fluid) is “less than one-third”. Also, the “3-deoxyglucosone concentration in intraperitoneal fluid” value in assay [2] (acid peritoneal dialysis fluid (pH 4.5 to 5.5) Dianeal PD-4 4.25, 20 ml i.p., control group 30.8) was 9.9 µg/mL.

The values above are taken from patent publication US20130338574A1, “ORAL MEDICINAL COMPOSITION FOR PATIENTS UNDERGOING PERITONEAL DIALYSIS AND METHOD FOR USING SAME” (TOKAI UNIVERSITY EDUCATIONAL SYSTEM, priority 2010, published 2013).
